# Source: patent publication US11020367B2, “Method for preparing medicine with dicaffeoylquinic acid for treating gout” (Huazhong Agricultural University, priority 2019, dated 2021)
# Marks after values point to notes of the source that are not given here.
# Tests used:
# THP-1 cells = assay: IL-1β secretion in THP-1 cells stimulated by lipopolysaccharide and sodium urate (gout inflammation model, ELISA); type: cell-based; conditions: 100 μmol/L compound pre-incubated 12 h, then lipopolysaccharide 1 μg/mL 2 h and sodium urate 200 μg/mL 4 h; PMA-differentiated THP-1; model group 8747.09 ± 975.97, control group 214.83 ± 11.92
# Description: THP-1 suspension cells were inoculated into a 24-well plate. When the density reached 80%, a phorbol ester (PMA) solution with a final concentration of 100 ng/mL was added. After 12 hours of PMA treatment, THP-1 cells differentiated into adherent macrophages. Culture medium was aspirated before washing the cells with PBS, completely replacing the culture medium to culture for 12 h before carrying out a dosing treatment. One hundred μmol/L of the above identified monomer compounds were pre-incubated for 12 h, then lipopolysaccharide with a final concentration of 1 μg/mL was added and acted for 2 h, and finally a sodium urate solution with a final concentration of 200 μg/mL was added and acted for 4 h. […] The model group was pre-incubated without drugs, and cells were stimulated with lipopolysaccharide and sodium urate. Finally, the cell supernatant was collected, centrifuged, and IL-1β content in the supernatant was measured by using an ELISA kit.
# XOD (xanthine oxidase) = XOD (xanthine oxidase) (Homo sapiens, UniProt P47989); assay: Inhibition of XOD enzyme activity (absorbance at 295 nm, xanthine substrate); type: biochemical; conditions: XOD 0.02 U/mL, xanthine 1 mmol/L, 37° C.; read-out: IC50 in inhibiting XOD
# Description: Forty μL of xanthine solution (1 mmol/L) was added with a spray gun to measure absorbance every 20 s for 15 times.
# Chain of XOD (xanthine oxidase) (P47989 whole entry, species assumed): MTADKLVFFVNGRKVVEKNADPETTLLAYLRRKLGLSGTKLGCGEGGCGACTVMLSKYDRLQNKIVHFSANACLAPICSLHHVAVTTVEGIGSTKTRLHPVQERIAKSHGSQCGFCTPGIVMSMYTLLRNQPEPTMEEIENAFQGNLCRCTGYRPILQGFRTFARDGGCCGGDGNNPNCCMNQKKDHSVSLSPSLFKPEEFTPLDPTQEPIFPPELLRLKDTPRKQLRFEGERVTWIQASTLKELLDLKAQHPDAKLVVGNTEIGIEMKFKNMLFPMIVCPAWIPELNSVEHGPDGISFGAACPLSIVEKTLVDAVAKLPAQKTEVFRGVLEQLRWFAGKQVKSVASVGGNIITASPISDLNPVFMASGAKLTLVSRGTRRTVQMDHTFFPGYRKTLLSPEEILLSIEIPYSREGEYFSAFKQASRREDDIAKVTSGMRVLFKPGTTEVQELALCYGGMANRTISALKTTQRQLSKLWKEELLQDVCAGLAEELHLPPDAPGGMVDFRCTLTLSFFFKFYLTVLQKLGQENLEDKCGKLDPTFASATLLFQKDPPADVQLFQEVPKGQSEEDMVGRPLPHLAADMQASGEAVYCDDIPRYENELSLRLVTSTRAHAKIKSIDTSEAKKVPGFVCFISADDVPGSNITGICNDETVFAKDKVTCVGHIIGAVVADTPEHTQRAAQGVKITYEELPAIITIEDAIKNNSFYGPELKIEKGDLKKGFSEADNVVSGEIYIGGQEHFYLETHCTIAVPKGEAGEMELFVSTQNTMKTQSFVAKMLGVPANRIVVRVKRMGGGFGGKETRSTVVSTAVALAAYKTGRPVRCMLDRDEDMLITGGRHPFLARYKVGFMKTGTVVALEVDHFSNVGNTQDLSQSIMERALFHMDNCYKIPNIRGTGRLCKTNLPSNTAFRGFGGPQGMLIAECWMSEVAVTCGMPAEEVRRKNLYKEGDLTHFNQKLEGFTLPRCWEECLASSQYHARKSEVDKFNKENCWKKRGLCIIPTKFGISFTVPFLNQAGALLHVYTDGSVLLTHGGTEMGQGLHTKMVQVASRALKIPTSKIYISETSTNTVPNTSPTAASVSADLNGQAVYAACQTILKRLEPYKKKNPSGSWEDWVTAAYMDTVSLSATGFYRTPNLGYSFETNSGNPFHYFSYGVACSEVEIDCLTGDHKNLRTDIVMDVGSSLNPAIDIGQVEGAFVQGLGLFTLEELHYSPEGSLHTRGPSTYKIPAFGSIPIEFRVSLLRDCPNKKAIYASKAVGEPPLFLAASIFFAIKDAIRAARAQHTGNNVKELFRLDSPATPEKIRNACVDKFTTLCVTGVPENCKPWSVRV
IC50 (XOD (xanthine oxidase)) [µM],Structure (SMILES),IL-1β in cell supernatant (THP-1 cells)
289 ± 21.8,"O=C(C=Cc1ccc(O)c(O)c1)OC1CC(O)(C(=O)O)CC(OC(=O)C=Cc2ccc(O)c(O)c2)C1O (stereo not shown) [3,5-diCQA, 3,5-dicaffeoylquinic acid]",8850.00 ± 190.20^e pg/mL
260 ± 18.4,"O=C(C=Cc1ccc(O)c(O)c1)OC1CC(O)(C(=O)O)CC(O)C1OC(=O)C=Cc1ccc(O)c(O)c1 (stereo not shown) [3,4-diCQA, 3,4-dicaffeoylquinic acid]",7088.57 ± 621.91^d pg/mL
122 ± 2.56,"O=C(C=Cc1ccc(O)c(O)c1)OC1CC(OC(=O)C=Cc2ccc(O)c(O)c2)(C(=O)O)CC(O)C1O (stereo not shown) [1,5-diCQA, 1,5-dicaffeoylquinic acid]",4176.74 ± 1214.41^b pg/mL
233 ± 10.9,"O=C(C=Cc1ccc(O)c(O)c1)OC1CC(O)(C(=O)O)CC(O)C1OC(=O)C=Cc1ccc(O)c(O)c1 (stereo not shown) [4,5-diCQA, 4,5-dicaffeoylquinic acid]",5572.09 ± 632.81^c pg/mL

Structure (SMILES),IC50 (XOD (xanthine oxidase)) [µM],IL-1β in cell supernatant (THP-1 cells)
"O=C(C=Cc1ccc(O)c(O)c1)OC1C(O)CC(OC(=O)C=Cc2ccc(O)c(O)c2)(C(=O)O)CC1O (stereo not shown) [1,4-diCQA, 1,4-dicaffeoylquinic acid]",7.36 ± 0.63,4647.67 ± 607.03^bc pg/mL
